According to paper PMC5007978, “A chemical with proven clinical safety rescues Down-syndrome-related phenotypes in through DYRK1A inhibition” (Disease Models & Mechanisms, 2016):

Legend:
DYRK1A [1] = molecular target: T1, DYRK1A (Homo sapiens, UniProt Q13627); assay: DYRK1A-mediated Tau (T212) phosphorylation in transfected 293T cells, western blot; type: cell-based; set-up: expressed in transfected cells; host or cells: 293T cells
DYRK4 = molecular target: T2, DYRK4 (Homo sapiens, UniProt Q9NR20); assay: In vitro kinase assay, recombinant human DYRK4 (Life Technologies); type: biochemical
T2 construct: purchased Life Technologies (Kinase Profiler service)
T2 sequence (Q9NR20 1-520): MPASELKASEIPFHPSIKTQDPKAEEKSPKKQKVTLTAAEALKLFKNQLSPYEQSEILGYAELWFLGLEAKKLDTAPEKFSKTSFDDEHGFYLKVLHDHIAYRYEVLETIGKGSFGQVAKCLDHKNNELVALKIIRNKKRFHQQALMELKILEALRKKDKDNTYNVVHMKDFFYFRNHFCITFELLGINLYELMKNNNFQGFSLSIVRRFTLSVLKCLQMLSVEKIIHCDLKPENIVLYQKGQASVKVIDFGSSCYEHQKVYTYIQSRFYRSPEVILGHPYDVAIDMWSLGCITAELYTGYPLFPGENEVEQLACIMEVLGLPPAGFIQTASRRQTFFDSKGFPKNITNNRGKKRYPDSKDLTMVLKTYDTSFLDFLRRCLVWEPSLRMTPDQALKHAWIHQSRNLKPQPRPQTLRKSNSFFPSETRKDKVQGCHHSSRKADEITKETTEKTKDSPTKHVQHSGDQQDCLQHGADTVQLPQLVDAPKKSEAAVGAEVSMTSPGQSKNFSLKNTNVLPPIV

[2] = set-up: method as in Senhwa Biosciences (2014); settings: phase I clinical trials as cancer therapeutic; ref Senhwa Biosciences (2014); cited from earlier work
DYRK1A [3] = molecular target: T1, DYRK1A; assay: DYRK1A kinase activity at various ATP and CX-4945 concentrations (Lineweaver-Burk); type: biochemical; set-up: purchased Life Technologies (Kinase Profiler service); settings: ATP 50, 75, 100, 150 and 200 μM; Lineweaver-Burk plots
Method: Fig. 2. […] Data are mean±s.d. […] Hydrogen bonds are denoted as dotted black lines, and oxygen, nitrogen and chlorine atoms are indicated as red, blue and green sticks, respectively.
Kinase assays were conducted using the Kinase Profiler services offered by Life Technologies, which utilizes a fluorescence-based immunoassay. Detailed protocols can be found at http://www.lifetechnologies.com/kinaseprofiling. […] All experiments were performed twice.

[4] = system: mnb-overexpressing Drosophila; assay: Wing vein (LV5) defect rescue in mnb-overexpressing flies (MS1096-gal4); type: in vivo, Drosophila melanogaster; settings: larvae fed for 2 weeks
DYRK1A [5] = assay: Tau phosphorylation (T212) in the hippocampus of DYRK1A transgenic mouse after oral administration; type: in vivo
Method: This mouse model has 50% higher expression of DYRK1A compared with a normal mouse, and increased Tau phosphorylation at T212 in the hippocampus has been well documented ([Ryoo et al., 2007]). Indeed, this phenomenon was also confirmed in our experiment.
Fig. 7. […] (A) Hippocampuses from normal and DYRK1A-overexpressing C57BL/6 mice (n=5 for each) were harvested, and the phosphorylation of Tau was analyzed by western blotting with anti-phosphorylated-Tau (at residue T212; p-Tau) and anti-Tau antibodies. α-Tubulin was also analyzed as a loading control. (B) The phosphorylated and total Tau proteins in panel A were quantified, and the mean amount of each protein was calculated. […] Total cell lysates were prepared and subjected to western blotting with the indicated antibodies. α-Tubulin was also analyzed as a loading control. (D) The phosphorylated and total Tau proteins in panel C were quantified, and the mean amount of each protein across the animals was calculated. Relative ratios of phosphorylated Tau to total Tau were calculated by setting the value from DYRK1A mice that had been treated with DMSO as 100%. […]
DYRK1A transgenic mice with three copies of the human DYRK1A gene were maintained as described previously ([Ahn et al., 2006]). […] The protein concentration was determined using the Bradford protein assay (Bio-Rad). […]

O=C(O)c1ccc2c(c1)nc(Nc1cccc(Cl)c1)c1ccncc12 [CX-4945]
inhibition of Tau phosphorylation at 0.1 μM (DYRK1A [1]; 0.1 μM): Moderate inhibition
inhibition of Tau phosphorylation at 1 μM (DYRK1A [1]; 1 μM): almost complete inhibition
IC50 (DYRK4): 1500 nM
clinical safety [2]: safety has been already proven
mode of DYRK1A inhibition (DYRK1A [3]): ATP-competitive manner
concentration giving apparent rescue of wing (LV5) defect [4]: 10 to 100 nM
phosphorylation of Tau (T212) in hippocampus (DYRK1A [5]; DYRK1A-overexpressing C57BL/6 mice, 75 mg/kg oral, 30 min): remarkably decreased
blood-brain barrier penetration (DYRK1A [5]; inferred from hippocampal Tau phosphorylation after oral 75 mg/kg): efficiently penetrates the blood-brain barrier
